The values that follow come from PMC11124852 (Pharmaceutics, 2024).

In data set [1] the target is S protein with the ACE2 host receptor. To be noted: cell-free ELISA-type assay; cited from earlier work.
For data set [2], the target named is SARS-CoV-2 spike RBD to human ACE2 (Severe acute respiratory syndrome coronavirus 2, UniProt P0DTC2). Kind of data set: biochemical. The class given is binding, SARS-CoV-2 / human. Conditions: for IC50: IC50 (µM).
Data set [3] can be described thus: In vitro cytotoxicity, MTT method. To be noted: mouse, J774.2 macrophage cells, CC50 (µM), macrophage cell line J774.2, 48 h, MTT; means of three experiments. As to the method: (§1) The mouse macrophage cell line J774.2 (ATCC® TIB-67) was used for the evaluation of the in vitro cytotoxicity. Cells were cultured in RPMI medium supplemented with 10% SFB, […], and glutamine (2 mM) at 37 °C and in an atmosphere of 5% CO2. The medium was changed at intervals of every 2 to 3 days. For the cytotoxicity assays, 1 × 10^6 cells were incubated with different concentrations of the compounds (0.78 to 200 µM) at 37 °C for 48 h in an atmosphere of 5% CO2. Cells in the presence of the maximum concentration of DMSO (0.2%) were included as a negative control. The metabolic activity of the cells was determined using the MTT method. The percentage of cell viability was calculated, and the mean cytotoxic concentration (CC50) was determined via a Probit analysis. Three independent assays were performed in triplicate each. Finally, the selectivity index (SI) was calculated using the following formula CC50/IC50.
In general terms: Tetrazolium dyes change colour on reduction, which living cells bring about.

In data set [4] the test system is mouse macrophage cell line J774.2. Kind of data set: In vitro cytotoxicity, MTT method. Conditions: for SI: selectivity index CC50/IC50. As to the method: as §1
The next data set concerns S protein. Conditions: block the S protein and inhibit protein-mediated intercellular fusion; cited from earlier work.
In the next data set the test system is rats. Conditions: concentrations of 0.03, 0.3, and 3%; cited from earlier work.
In another data set the test system is meiobenthic nematodes. Conditions: cited from earlier work.
Data set [5] concerns S protein and its host cell receptor ACE2. To be noted: cited from earlier work.
The test system is the same in data set [6]. To be noted: cited from earlier work. This is another data set of the same source.

Converted amounts (≈) assume the structure as drawn. “And” between values parts separate entries of the source, which are not always exact repeats. Equal values may be shown once.

Turning to `O=C(Nc1ccc2cc(S(=O)(=O)O)cc(O)c2c1)c1ccc(-c2ccc(C(=O)Nc3ccc4cc(S(=O)(=O)O)cc(O)c4c3)cc2)cc1` [DRI-C91005], the IC50 in data set [1] is 160 nM.

As to `CC(=O)Nc1ccc(OS(=O)(=O)c2ccc3c4c(cccc24)C(=O)N3)c2ccccc12` [DRI-5, CC(=O)Nc1ccc(OS(=O)(=O)c2ccc3NC(=O)c4cccc2c34)c2ccccc12], in data set [2], the inhibition at 50 µM worked out at 69.9 ± 1.2% and the 50% inhibitory concentration (IC50) is 13.7 ± 0.12 µM. In addition, the midpoint of cytotoxicity in data set [3], the CC50 at 48 h, lay at 126 ± 2.3 µM. Further, the SI in [4] was 9.21.

In data set [2], `O=C(Nc1ccc2c(O)c(/N=N/c3ccc(/N=N/c4ccc(S(=O)(=O)[O-])cc4)cc3)c(S(=O)(=O)[O-])cc2c1)c1ccccc1.[Na+].[Na+]` [DRI-1, [Na+].[Na+].c1(/N=N/c2ccc(cc2)/N=N/c2c(cc3c(c2O)ccc(c3)NC(=O)c2ccccc2)S(=O)(=O)[O-])ccc(cc1)S(=O)(=O)[O-]] returned an inhibition at 50 µM of 90.59 ± 0.54% and a 50% inhibitory concentration (IC50) of 13 ± 0.71 µM. Besides, it took 94.5 µM to reach half-maximal cytotoxicity in data set [3] (CC50 at 48 h). For the same molecule, in [4] (macrophage cell line J774.2, 48 h, MTT, means of three experiments), half-maximal cytotoxicity (CC50) was put at 94.5 ± 0.96 µM. This molecule also showed an SI in data set [4] of 7.25.

On to `CCOc1ccc(NS(=O)(=O)c2ccc(NC(=O)c3ccc(-c4ccccc4)cc3)cc2)cc1` [DRI-4, S(=O)(=O)(Nc1ccc(cc1)OCC)c1ccc(NC(=O)c2ccc(cc2)c2ccccc2)cc1], for which, in [2], testing at 50 µM gave an inhibition of 76.4 ± 1% and the midpoint of inhibition, the IC50, lay at 24.6 ± 2.5 µM. Further, the CC50 at 48 h in [3] was above 200 µM. The SI in data set [4] worked out at 8.14.

Consider `CCC(C)n1ncn(-c2ccc(N3CCN(c4ccc(OCC5COC(Cn6cncn6)(c6ccc(Cl)cc6Cl)O5)cc4)CC3)cc2)c1=O` (stereo not drawn) [itraconazole], for which, in the data set with S protein, the IC50 is 450 nM.

For the molecule `O=C(Nc1ccc2c(O)cc(S(=O)(=O)O)cc2c1)Nc1ccc2c(O)cc(S(=O)(=O)O)cc2c1` [DRI-2, c12c(ccc(c1)NC(=O)Nc1cc3c(cc1)c(cc(c3)S(=O)(=O)O)O)c(cc(c2)S(=O)(=O)O)O], in data set [2], the inhibition at 50 µM is 90.8 ± 1.7% and the half-maximal inhibitory concentration (IC50) was 8.84 ± 4.3 µM. In data set [4], the SI is 22.6 and 22.62.

As to `CCN(Cc1cccc(S(=O)(=O)O)c1)c1ccc(C(=C2C=CC(=[N+](CC)Cc3cccc(S(=O)(=O)O)c3)C=C2)c2ccccc2)cc1` [DRI-3, guinea green B], in the data set with rats, the toxicity in rats entry is “initial growth depression in rats, as well as the appearance of malignant tumors”. In data set [2], this molecule showed an inhibition at 50 µM of 99.65 ± 0.25% and an IC50 of 2.14 ± 0.97 µM. Further, the SI in [4] was 93.4 and 93.45.

As to `C[C@]12CC[C@@H]3c4ccc(OC(=O)c5ccccc5)cc4CC[C@H]3[C@@H]1CC[C@@H]2O` [estradiol benzoate], in the data set with meiobenthic nematodes, the “concentration from which significant toxicity starts” value was at least 4.3 ng/L. The half-inhibitory concentration (IC50) in the data set with S protein is 1020 nM.

For the molecule `CC1=C(C)C(=O)O[C@@H]([C@@H](C)[C@@]2(O)CC[C@H]3[C@@H]4[C@@H]5O[C@@H]5[C@@]5(O)CC=CC(=O)[C@]5(C)[C@H]4CC[C@@]32C)C1` [withanone], the IC50 in data set [5] is 0.33 ng/mL (≈ 0.701 nM).

Take `COc1ccc2c(O[C@@H]3C[C@H]4C(=O)N[C@]5(C(=O)NS(=O)(=O)C6CC6)C[C@H]5/C=C\CCCCN(C)C(=O)[C@@H]4C3)cc(-c3nc(C(C)C)cs3)nc2c1C` [simeprevir]: the equilibrium dissociation constant (Kd) in data set [6] is 812 nM.

Take `CS(=O)(=O)c1cccc(C[C@H](NC(=O)c2c(Cl)cc3c(c2Cl)CCN(C(=O)c2ccc4ccoc4c2)C3)C(=O)O)c1` [sodium lifitegrast]: the dissociation constant (Kd) in [6] is 1.92 nM.

Usually IC50 stands for the concentration at which inhibition is half-maximal. Broadly, the inhibition is the change of the read-out against control, counted positive when it falls. A lower inhibition goes with a weak effect. Usually CC50 stands for the concentration at which the toxic effect on the cells reaches its halfway point. For orientation: Kd means a measure of binding affinity in units of concentration.
